How the values were obtained:
Experiment in all cases: relative viability (nuclei count vs DMSO), 5 days (fraction); higher = more cells survive
[1] = compound: COc1cc(Nc2ncc3c(n2)-c2ccc(Cl)cc2C(c2c(F)cccc2OC)=NC3)ccc1C(=O)O [Alisertib] + CC(C)C[C@H](NC(=O)[C@H](Cc1ccccc1)NC(=O)c1cnccn1)B(O)O [Bortezomib] (partner 0.002 µM)
Summary of the method: (§1)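 Lung cancer cell lines, seeded in 1536-well plates, were treated the following day by pin tool with a single drug or with five library-drug doses (not always all listed) in √10 steps on top of a fixed anchor-drug dose. Cells were fixed and nuclei stained in one step after 5 days, and nuclei were counted. Relative viability is the nuclei count for treated wells divided by that for vehicle wells, reported as medians of duplicate plates.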

[2] = compound: COc1cc(Nc2ncc3c(n2)-c2ccc(Cl)cc2C(c2c(F)cccc2OC)=NC3)ccc1C(=O)O [Alisertib] + CS(=O)(=O)N1CCN(Cc2cc3nc(-c4cccc5[nH]ncc45)nc(N4CCOCC4)c3s2)CC1 [Pictilisib] (partner 1 µM)
Summary of the method: as §1

[3] = compound: COc1cc(Nc2ncc3c(n2)-c2ccc(Cl)cc2C(c2c(F)cccc2OC)=NC3)ccc1C(=O)O [Alisertib] + O=C(c1cc(Cc2n[nH]c(=O)c3ccccc23)ccc1F)N1CCN(C(=O)C2CC2)CC1 [Olaparib] (partner 8 µM)
Summary of the method: as §1

[4] = compound: COc1cc(Nc2ncc3c(n2)-c2ccc(Cl)cc2C(c2c(F)cccc2OC)=NC3)ccc1C(=O)O [Alisertib] + CC(=O)Nc1cccc(-n2c(=O)n(C3CC3)c(=O)c3c(Nc4ccc(I)cc4F)n(C)c(=O)c(C)c32)c1 [Trametinib] (partner 0.02 µM)
Summary of the method: as §1

Cell Line | relative viability ([1]; first compound 0.005 µM) | relative viability ([1]; first compound 0.01581 µM) | relative viability ([1]; first compound 0.05 µM) | relative viability ([1]; first compound 0.1581 µM) | relative viability ([1]; first compound 0.5 µM) | relative viability ([2]; first compound 0.005 µM) | relative viability ([2]; first compound 0.01581 µM) | relative viability ([2]; first compound 0.05 µM) | relative viability ([2]; first compound 0.1581 µM) | relative viability ([2]; first compound 0.5 µM) | relative viability ([3]; first compound 0.005 µM) | relative viability ([3]; first compound 0.01581 µM) | relative viability ([3]; first compound 0.05 µM) | relative viability ([3]; first compound 0.1581 µM) | relative viability ([3]; first compound 0.5 µM) | relative viability ([4]; first compound 0.005 µM) | relative viability ([4]; first compound 0.01581 µM) | relative viability ([4]; first compound 0.05 µM) | relative viability ([4]; first compound 0.1581 µM) | relative viability ([4]; first compound 0.5 µM)
201T | 1.05 | 1.07 | 1.08 | 1.07 | 0.694 | 0.623 | 0.676 | 0.671 | 0.326 | 0.327 | 0.823 | 0.803 | 0.711 | 0.361 | 0.33 | 0.732 | 0.707 | 0.707 | 0.679 | 0.278
A549 |  |  |  |  |  | 0.423 | 0.123 | 0.051 | 0.0422 | 0.0618 | 0.317 | 0.305 | 0.0782 | 0.079 | 0.0413 |  |  |  |  | 
A-427 | 0.89 | 0.818 | 0.751 | 0.149 | 0.15 | 0.615 | 0.451 | 0.234 | 0.147 | 0.172 | 0.65 | 0.563 | 0.204 | 0.177 | 0.227 | 0.596 | 0.57 | 0.244 | 0.241 | 0.262
ABC-1 | 0.279 | 0.269 | 0.315 | 0.278 | 0.278 | 0.674 | 0.606 | 0.578 | 0.277 | 0.232 | 0.534 | 0.708 | 0.677 | 0.555 | 0.432 |  |  |  |  | 
BEN | 0.691 | 0.867 | 0.398 | 0.229 | 0.2 | 0.554 | 0.508 | 0.276 | 0.24 | 0.224 | 0.983 | 0.917 | 0.295 | 0.269 | 0.341 | 1.02 | 0.976 | 0.435 | 0.286 | 0.409
CAL-12T | 0.768 | 0.489 | 0.296 | 0.221 | 0.201 | 0.322 | 0.294 | 0.134 | 0.246 | 0.218 | 0.66 | 0.534 | 0.194 | 0.159 | 0.195 | 0.321 | 0.261 | 0.155 | 0.154 | 0.227
COR-L23 | 0.895 | 0.789 | 0.647 | 0.137 | 0.131 | 0.662 | 0.632 | 0.248 | 0.137 | 0.0917 | 0.304 | 0.298 | 0.183 | 0.137 | 0.101 | 0.609 | 0.427 | 0.221 | 0.133 | 0.125
COR-L 105 | 0.757 | 0.875 | 0.447 | 0.27 | 0.218 | 0.44 | 0.34 | 0.336 | 0.264 | 0.281 | 0.689 | 0.641 | 0.502 | 0.498 | 0.311 | 0.4 | 0.407 | 0.369 | 0.325 | 0.281
Calu-6 | 0.89 | 0.57 | 0.316 | 0.189 | 0.195 | 0.726 | 0.379 | 0.164 | 0.171 | 0.153 | 0.545 | 0.385 | 0.237 | 0.207 | 0.13 |  |  |  |  | 

Source: the supplement of paper PMC10307832
